Source: patent publication US20030134779A1, “Method and composition for treatment and/or prevention of antibiotic-resistant microorganism infections” (priority 2002, published 2003)
Where two headings read alike, the source gives them in different places.

Key:
[1] = test system: S. aureus ATCC 25923; experiment: Checkerboard MICs and FIC index, penicillin with bovine LF; type: cell-based, Staphylococcus aureus
Protocol: (§1) The MICs were determined by both macrodilution (1 ml/tube) and microdilution (100 μl/well) in sterile 96 well microtiter plates (International Nunc, Napierville, Ill.) techniques in three separate experiments according to the National Committee for Clinical Laboratory Standards (1992 and 1999) in three separate experiments. Serial 2-fold dilutions in MHB of LF, LFC, antibiotic or combination of LF or LFC with antibiotic were inoculated with an overnight culture at a final inoculum of 10^6 cfu/ml in MHB. Effect of LF combination with antibiotic on MICs were determined by adding 0.5 mg or 1 mg/ml of LF to each antibiotic dilution. The MIC was defined as the lowest concentration of drug (highest dilution) that caused a complete inhibition of bacterial growth after an incubation of 18 h. Effect of LF or LFC combination with antibiotic on MIC was also determined by checkerboard method using 96 well microtiter plates. Each antibiotic dilution (50 μl) was serially added to the wells in vertical rows starting from the top (lower dilution) to the bottom. Lactoferrin or LFC (50 μl) were added to 50 μl of each antibiotic dilution and serially diluted starting at the left (lower dilution) to the right. After inoculation, the final concentration of antibiotic from top to bottom were 32 to 8, 2 to 0.5, 0.5 to 0.125 μg/ml for penicillin, cefazolin and neomycin, respectively. From left to right, the concentration of LF or LFC were 25 to 0.0244 mg/ml or 256 to 0.5 μg/ml respectively in a final volume of 100 μl/well. The microplate's were incubated at 37° C. for 24 h. Bacterial growth was measured optically at 540 nm using Spectra Max 250 Microplate Spectrophotometer System of Molecular Device (Fisher Scientific, Ottawa, Canada). Tubes were incubated at 37° C. for 18 h and bacterial growth was measured by visual examination and optically at 540 nm using a spectrophotometer (Philips PU 8800; Pye Unican Ltd, Cambridge, UK). The fractional inhibitory concentration (FIC) was calculated as described by Eliopoulos and Moellering (1991).
(§2) FIC antibiotic A=MICantibiotic A (in the presence of antibiotic B)/MICantibiotic A alone. FIC Index=FICantibiotic A+FICantibiotic B
(§3) The effects of the antibiotics were considered to be synergistic or indifferent when FIC Index was<1 or>1, respectively.

[2] = test system: S. aureus SHY97-3906; experiment: as above; type: cell-based, Staphylococcus aureus; details: for Decrease (of MIC of penicillin): by combination with bovine LF
Protocol: as §1, §2, §3

[3] = test system: S. aureus PC-1; experiment: as above; type: cell-based, Staphylococcus aureus; details: by combination with bovine LF
Protocol: as §1, §2, §3

[4] = test system: S. aureus SHY97-4320; experiment: as above; type: cell-based, Staphylococcus aureus; details: for Decrease (of MIC of penicillin): by combination with bovine LF
Protocol: as §1, §2, §3

[5] = test system: S. aureus ATCC 25923; experiment: MIC of penicillin G alone or with bovine LF, macrodilution; type: cell-based; details: Staphylococcus aureus, strain β-lactamase type −, read-out: MICs of penicillin G
Source text: (§4) Staphylococcus aureus strains ATCC 25923 and 6538 and Escherichia coli ATCC 25922 were obtained from the American Type Culture Collection. Eight bovine mastitis clinical isolates of S. aureus (SHY97-3906, -3923, -4085 -4242, -4320 and -4343, RFT-1 and RFT-5) and one isolate of E. coli SHY97-3923-2 and one isolate of Kiebsiella pneumoniae SHY99-723-1 were kindly provided by the Laboratoire Provincial de Pathologie Animale of St-Hyacinthe and of Rock-Forest (Quebec, Canada), respectively. Nine β-lactam antibiotics resistant S. aureus strains (PC-1, NCTC 9789, 2076, 22260, ST79/741, 3804, RN9, FAR8, and FAR10) were obtained from Vanderbilt University School of Medicine (Nashville, Tenn., USA). All the culture media were from Difco Laboratories (Detroit, Mich.). Bacteria from frozen stock at −80° C. were streaked onto tryptic soy agar plates suplemented with 5% of defibrinated sheep blood (Quelab, Montreal, QC, Canada) or Brain Heart infusion agar plates. Plates were then incubated for 16 to 24 h at 37° C. For most experiments, the strains were subcultured onto Mueller Hinton agar plates (MHA) or broth (MHB) for an additional 16-20 h. Aqueous solutions of the tested products were added by filtration through a sterile filter assembly (pore size 0.2 μm, Fisher, Ottawa, Ontario).
as §1

[6] = test system: S. aureus SHY97-3906; experiment: as above; type: cell-based; details: Staphylococcus aureus, strain β-lactamase + uncharacterised, read-out: MICs of penicillin G
Source text: as §4, §1

[7] = test system: S. aureus NCTC; experiment: as above; type: cell-based; details: Staphylococcus aureus, strain β-lactamase +A
Source text: as §4, §1

[8] = test system: S. aureus ST79/41; experiment: as above; type: cell-based; details: Staphylococcus aureus, strain β-lactamase +B, read-out: MICs of penicillin G
Source text: as §4, §1

[9] = test system: S. aureus FAR 10; experiment: as above; type: cell-based; details: Staphylococcus aureus, strain β-lactamase +D, read-out: MICs of penicillin G
Source text: as §4, §1

[10] = test system: S. aureus RN 9; experiment: as above; type: cell-based, Staphylococcus aureus; details: strain β-lactamase +C; for MIC: Staphylococcus aureus
Source text: as §4, §1

[11] = test system: S. aureus 3804^f; experiment: as above; type: cell-based, Staphylococcus aureus; details: strain β-lactamase +C; for MIC: Staphylococcus aureus
Source text: as §4, §1

[12] = read-out: MICs of penicillin G, Alone

**Q.** `CC1(C)S[C@@H]2[C@H](NC(=O)Cc3ccccc3)C(=O)N2[C@H]1C(=O)O` [penicillin G, Penicillin G] was tested. Which MIC ([1]; Staphylococcus aureus, ATCC25923, in combination with bovine LF, checkerboard) did it give?
**A.** The MIC was 0.0156 µg/mL.

**Q.** And the “Decrease (of MIC of penicillin)” value ([1]; by combination with bovine LF)?
**A.** The value was 2 fold.

**Q.** What about the MIC ([2]; Staphylococcus aureus, SHY973906, in combination with bovine LF, checkerboard) of the same molecule?
**A.** Its MIC is 0.125 µg/mL.

**Q.** What about the “Decrease (of MIC of penicillin)” value ([2]; listed as Penicillin) of the same molecule?
**A.** Its value is 4 fold.

**Q.** What about the “Decrease (of MIC of penicillin)” value ([2]; listed as penicillin) of the same molecule?
**A.** The value was “four fold”.

**Q.** And the “Decrease (of MIC of penicillin)” value ([3]; listed as Penicillin)?
**A.** The value was “≧2 fold”.

**Q.** What about the “Decrease (of MIC of penicillin)” value ([3]; listed as penicillin) of the same molecule?
**A.** The value was no less than 2 fold.

**Q.** And the MIC ([4]; Staphylococcus aureus, SHY974320, in combination with bovine LF, checkerboard)?
**A.** The MIC was 16 µg/mL.

**Q.** What about the “Decrease (of MIC of penicillin)” value ([4]; listed as Penicillin) of the same molecule?
**A.** Its value is 4 fold.

**Q.** What about the “Decrease (of MIC of penicillin)” value ([4]; listed as penicillin) of the same molecule?
**A.** The value was “four fold”.

**Q.** What about the MIC ([5]; ATCC25923, +0.5 mg/ml LF) of the same molecule?
**A.** The MIC was 0.031 µg/mL.

**Q.** What about the MIC ([5]; ATCC25923, +1 mg/ml LF) of the same molecule?
**A.** Its MIC is 0.015 µg/mL.

**Q.** What about the MIC ([5]; ATCC25923, Alone) of the same molecule?
**A.** The MIC was 0.031 µg/mL.

**Q.** And the MIC ([6]; SHY973906, +0.5 mg/ml LF)?
**A.** Its MIC is 0.5 µg/mL.

**Q.** What about the MIC ([6]; SHY973906, +1 mg/ml LF) of the same molecule?
**A.** Its MIC is 0.25 µg/mL.

**Q.** And the MIC ([6]; SHY973906, Alone)?
**A.** The MIC was 0.5 µg/mL.

**Q.** What about the MIC ([7]; read-out: MICs of penicillin G, +0.5 mg/ml LF) of the same molecule?
**A.** Its MIC is 128 µg/mL.

**Q.** What about the MIC ([7]; read-out: MICs of penicillin G, +1 mg/ml LF) of the same molecule?
**A.** The MIC was 128 µg/mL.

**Q.** What about the MIC [7, 12] of the same molecule?
**A.** Its MIC is greater than 128 µg/mL.

**Q.** And the MIC ([8]; ST79/41, +0.5 mg/ml LF)?
**A.** Its MIC is 16 µg/mL.

**Q.** What about the MIC ([8]; ST79/41, +1 mg/ml LF) of the same molecule?
**A.** The MIC was 16 µg/mL.

**Q.** And the MIC ([8]; ST79/41, Alone)?
**A.** The MIC was 32 µg/mL.

**Q.** What about the MIC ([9]; FAR10, +0.5 mg/ml LF) of the same molecule?
**A.** Its MIC is 1 µg/mL.

**Q.** What about the MIC ([9]; FAR10, +1 mg/ml LF) of the same molecule?
**A.** The MIC was 1 µg/mL.

**Q.** What about the MIC ([9]; FAR10, Alone) of the same molecule?
**A.** Its MIC is 2 µg/mL.

**Q.** And the “MICs of penicillin G” value ([10]; +1 mg/ml LF)?
**A.** Its value is 64 µg/mL.

**Q.** What about the MIC ([10]; RN9, read-out: MICs of penicillin G, Alone) of the same molecule?
**A.** The MIC was 128 µg/mL.

**Q.** And the MIC ([10]; RN9, +0.5 mg/ml LF, read-out: MICs of penicillin G)?
**A.** Its MIC is 64 µg/mL.

**Q.** What about the “MICs of penicillin G” value ([11]; +1 mg/ml LF) of the same molecule?
**A.** Its value is 64 µg/mL.

**Q.** What about the MIC [11, 12] of the same molecule?
**A.** The MIC was 128 µg/mL.

**Q.** What about the MIC ([11]; +0.5 mg/ml LF, read-out: MICs of penicillin G) of the same molecule?
**A.** The MIC was 64 µg/mL.
